These results are taken from ChEMBL document CHEMBL1201862, “PubChem BioAssay data set” (2004).

Some test systems named below: MOLT-4; SF-295; U-251; SF-268; TK-10; HOP-92; MDA-MB-231; CCRF-CEM; BT-549; OVCAR-4; HCT-116; OVCAR-5; SNB-19; Malme-3M; K562; CAKI-1; ACHN; LOX IMVI; SK-MEL-2; SR.
Test in all cases: DTP human tumour cell line panel, 48 h

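How tested: cells in 96-well plates exposed to compound for 48 hours at five concentrations. GI50 marks 50% less growth.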 Activity calls are given as the source filed them. Rule as the data show it: active = GI50 up to about 1.1 µM and inactive = higher. Square brackets hold non-standard residues; d marks the D form. Peptide text beside a SMILES is read from it. * marks the point of attachment. X26 = COC1=CC(=O)N(C(=O)[C@@H](O*)C(C)C)[C@H]1Cc1ccccc1; NMeL = CN[C@@H](CC(C)C)C(=O)O; Hexanoyl = CCCCCC(=O)* A value given as a limit tells only on which side of the number the result lay.

The term GI50 denotes the concentration that inhibits growth by half. As for `Cc1ccc2c(c1C)CC1(Cc3c(C)ccc(C)c3C1=O)C2=O` (stereo not given), the GI50 in the test on MOLT-4, in the test with SF-295, in the test on U-251, in the test with SF-268, with TK-10 and in the test on HOP-92 was > 100 µM (inactive) throughout. The GI50 in the test with MDA-MB-231, with CCRF-CEM, with BT-549, with OVCAR-4, in the test on HCT-116 and in the test on OVCAR-5 was > 100 µM (inactive) each time. In addition, the GI50 in the test with SNB-19, with Malme-3M, in the test with K562, in the test on CAKI-1 and in the test on ACHN was > 100 µM (inactive) in each case.
With `N=C(N)SCc1cc(Cl)cc(Cl)c1O`, the GI50 with MOLT-4 is 24.4 µM (inactive); with SF-295 it was 25.5 µM (inactive); with U-251 it was 15.7 µM (inactive); with SF-268, 21.8 µM (inactive); in the test with TK-10 it was 18.8 µM (inactive); with HOP-92, 15.7 µM (inactive). Moreover, the GI50 in the test with MDA-MB-231 was 15.1 µM (inactive); in the test with LOX IMVI, 18.5 µM (inactive); with CCRF-CEM, 13.7 µM (inactive); in the test with BT-549, 18.7 µM (inactive); in the test on OVCAR-4 it was 23.3 µM (inactive); in the test with HCT-116 it was 16.3 µM (inactive). The GI50 in the test on OVCAR-5 was 16.3 µM (inactive); in the test with SNB-19 it was 18.2 µM (inactive); with Malme-3M it was 21.6 µM (inactive); in the test with SK-MEL-2 it was 18.2 µM (inactive); with K562 it was 19.8 µM (inactive); with CAKI-1 it was 18.6 µM (inactive). Further, the GI50 in the test on ACHN was 19.5 µM (inactive).
As for `CCN(CC)C(=S)SS(=O)(=O)c1ccc(C)cc1`, the GI50 with SF-295 was 52.7 µM (inactive); in the test with U-251 it was 23.3 µM (inactive); in the test with SF-268 it was 55.2 µM (inactive); with TK-10, > 100 µM (inactive); in the test with MDA-MB-231, 35.7 µM (inactive); with LOX IMVI, 17.4 µM (inactive). In addition, the GI50 in the test on CCRF-CEM is < 0.01 µM (active); in the test with BT-549 it was 28.7 µM (inactive); in the test with OVCAR-4, 43.2 µM (inactive); in the test with OVCAR-5, > 100 µM (inactive); in the test with SNB-19, 61.1 µM (inactive); in the test on Malme-3M, 20.4 µM (inactive). The GI50 with SK-MEL-2 was 50.4 µM (inactive); in the test on K562, 28.5 µM (inactive); in the test on CAKI-1, 17.7 µM (inactive); in the test with ACHN, 34.7 µM (inactive).
As for `CC1(C)N=C(N)N=C(N)N1c1cccc(OCc2cccc(N)c2)c1`, the GI50 was 8.02 µM (inactive) in the test on MOLT-4; > 79.6 µM (inactive) in the test on SF-295; 14.7 µM (inactive) with U-251; 14.3 µM (inactive) with SF-268; > 52.1 µM (inactive) in the test on TK-10; > 49 µM (inactive) in the test on HOP-92. In addition, the GI50 in the test on MDA-MB-231 was > 71.4 µM (inactive); in the test with LOX IMVI, 9.46 µM (inactive); in the test with CCRF-CEM it was 4.85 µM (inactive); with BT-549, > 65.9 µM (inactive); with OVCAR-4, > 69.5 µM (inactive); with HCT-116, 13.3 µM (inactive). Also, the GI50 with OVCAR-5 is 26.9 µM (inactive); in the test on SNB-19 it was 23.8 µM (inactive); in the test with Malme-3M it was > 71.9 µM (inactive); in the test on SK-MEL-2, > 100 µM (inactive); with K562, 3.17 µM (inactive); in the test on CAKI-1 it was > 100 µM (inactive). The GI50 in the test with ACHN was > 100 µM (inactive).
In the case of `[N-]=[N+]=Nc1c(-c2ccccc2)c(=O)n(-c2ccccc2)c2ccccc12`, the GI50 was 75.7 µM (inactive) with MOLT-4; 49 µM (inactive) with SF-295; 52.1 µM (inactive) in the test on U-251; 13.2 µM (inactive) in the test with SF-268; > 100 µM (inactive) with TK-10; 49.4 µM (inactive) in the test with HOP-92. In addition, the GI50 with SR is > 100 µM (inactive); in the test on MDA-MB-231 it was 74.3 µM (inactive); in the test on LOX IMVI it was 63.2 µM (inactive); with CCRF-CEM, > 100 µM (inactive); with BT-549 it was > 100 µM (inactive); in the test on OVCAR-4, 64 µM (inactive). For the same compound, the GI50 is 34.7 µM (inactive) with HCT-116, 19.3 µM (inactive) in the test on Malme-3M, > 100 µM (inactive) in the test on K562 and 49.4 µM (inactive) in the test on ACHN.
For the compound `CCCCCCCCCCCCCCCCOCC(Cl)COP(=O)(O)OP(=O)(O)OCC1OC(n2cc(C)c(=O)[nH]c2=O)CC1O` (stereo not given), the GI50 was > 100 µM (inactive) with MOLT-4; 57 µM (inactive) with SF-295; > 100 µM (inactive) with U-251; 69.2 µM (inactive) with SF-268; > 100 µM (inactive) with TK-10; 29.5 µM (inactive) in the test on HOP-92. Besides, the GI50 in the test with MDA-MB-231 was 49 µM (inactive); in the test on LOX IMVI, > 100 µM (inactive); in the test on CCRF-CEM it was > 100 µM (inactive); in the test on BT-549, > 100 µM (inactive); with OVCAR-4 it was > 100 µM (inactive); in the test with HCT-116, > 100 µM (inactive). The GI50 was 95.1 µM (inactive) in the test on OVCAR-5; > 100 µM (inactive) with SNB-19; > 100 µM (inactive) with Malme-3M; > 100 µM (inactive) in the test on SK-MEL-2; > 100 µM (inactive) in the test with K562; > 100 µM (inactive) in the test on CAKI-1. In the test with ACHN, the GI50 was > 100 µM (inactive).
Consider `CCCCCC(=O)N[C@H](C(=O)N[C@H](C(=O)N(C)[C@@H](CC(C)C)C(=O)N1CCC[C@H]1C(=O)N1CCC[C@H]1C(=O)O[C@H](C(=O)N1C(=O)C=C(OC)[C@@H]1Cc1ccccc1)C(C)C)C(C)C)C(C)C` (Hexanoyl-VV[NMeL]PP-X26), for which the GI50 is 1.9 µM (inactive) in the test with MOLT-4; > 100 µM (inactive) in the test on SF-295; > 91.6 µM (inactive) with U-251; > 41.9 µM (inactive) with SF-268; > 100 µM (inactive) with TK-10; 36.1 µM (inactive) in the test with HOP-92. In addition, the GI50 in the test on MDA-MB-231 is > 64.9 µM (inactive); in the test on LOX IMVI, > 100 µM (inactive); in the test with CCRF-CEM, 42.9 µM (inactive); in the test with BT-549, 83.4 µM (inactive); in the test with OVCAR-4, > 76.9 µM (inactive); in the test with HCT-116 it was 54.7 µM (inactive). Also, the GI50 is > 100 µM (inactive) with OVCAR-5; > 20.5 µM (inactive) in the test on Malme-3M; > 100 µM (inactive) in the test with SK-MEL-2; 10.3 µM (inactive) with K562; 74.6 µM (inactive) in the test on CAKI-1; > 100 µM (inactive) in the test on ACHN.
For the compound `Cn1cc(C2NC(=O)c3ccccc3N2)c2ccccc21` (stereo not given), the GI50 with MOLT-4 is 0.255 µM (active); in the test on SF-295 it was 0.305 µM (active); in the test on U-251, 0.889 µM (active); with SF-268, 3.86 µM (inactive); in the test on TK-10 it was 2.94 µM (inactive); in the test with HOP-92, 22.3 µM (inactive). Also, the GI50 is 2.14 µM (inactive) with MDA-MB-231; 0.877 µM (active) in the test on LOX IMVI; 0.413 µM (active) in the test with CCRF-CEM; > 100 µM (inactive) in the test with BT-549; 0.306 µM (active) in the test on OVCAR-4; 0.587 µM (active) in the test on HCT-116. Besides, the GI50 in the test on OVCAR-5 is 1.18 µM (inactive); with SNB-19 it was 1.55 µM (inactive); with Malme-3M it was 0.316 µM (active); in the test with SK-MEL-2, 2.02 µM (inactive); with K562, 0.125 µM (active); in the test with ACHN it was 1.75 µM (inactive).
Regarding `CC1(CF)SCc2nc3ccccc3n21` (stereo not given), the GI50 in the test with SF-295, in the test on U-251, in the test on SF-268, with TK-10, with HOP-92 and in the test with SR was > 100 µM (inactive) in each case. Further, the GI50 in the test with MDA-MB-231, in the test with LOX IMVI, in the test with BT-549, in the test with HCT-116, with OVCAR-5 and in the test with SNB-19 was > 100 µM (inactive) in each case. Moreover, the GI50 with Malme-3M, in the test with CAKI-1 and with ACHN was > 100 µM (inactive) throughout.
Turning to `c1nc(OCC2CCCCC2)c2nc[nH]c2n1`, the GI50 with MOLT-4 is 31.6 µM (inactive); in the test with SF-295 it was 50.9 µM (inactive); with U-251 it was 58.3 µM (inactive); in the test on SF-268, 44.5 µM (inactive); with TK-10 it was > 100 µM (inactive); in the test on HOP-92, 66.7 µM (inactive). Besides, the GI50 in the test with MDA-MB-231 is 63.2 µM (inactive); in the test on LOX IMVI it was 34.9 µM (inactive); in the test on CCRF-CEM, > 100 µM (inactive); in the test with BT-549 it was > 100 µM (inactive); with OVCAR-4 it was > 100 µM (inactive); with HCT-116 it was 35.7 µM (inactive). For the same compound, the GI50 with OVCAR-5 is 62.7 µM (inactive); in the test with SNB-19 it was > 100 µM (inactive); with Malme-3M, 70.5 µM (inactive); in the test with SK-MEL-2, 40.6 µM (inactive); in the test on K562 it was 99.8 µM (inactive); in the test on CAKI-1 it was > 100 µM (inactive). In addition, the GI50 in the test on ACHN is 10.1 µM (inactive).
Regarding `CSc1nnnc2ccccc12`, the GI50 with MOLT-4, with SF-295, with U-251, in the test with SF-268, with TK-10 and in the test on HOP-92 was > 100 µM (inactive) in each case. Moreover, the GI50 with MDA-MB-231 was > 100 µM (inactive); with LOX IMVI, > 100 µM (inactive); in the test with CCRF-CEM it was 51.4 µM (inactive); in the test on BT-549, > 100 µM (inactive); with OVCAR-4, > 100 µM (inactive); in the test with HCT-116, > 100 µM (inactive). Also, the GI50 in the test with OVCAR-5, with SNB-19, in the test on Malme-3M, in the test with SK-MEL-2, in the test with K562 and in the test on CAKI-1 was > 100 µM (inactive) throughout. Moreover, the GI50 in the test with ACHN is > 100 µM (inactive).
